In patent US20100150839A1, “Compositions and Methods for Modulating Cognitive Function” (Massachusetts Institute of Technology, priority 2005, published 2010):
“And” between values parts separate entries of the source, which are not always exact repeats. Equal values may be shown once. “Also recorded” adds a separate entry of the source. Read-outs that look alike come from different tables or passages of the source.

How the values were obtained:
[1] = test system: cultured hippocampal neurons; experiment: Metabolic pulse labeling (35S-methionine incorporation) in cultured hippocampal neurons; type: cell-based, rat; conditions: for Increase in translation levels: hippocampal neuronal cultures, 35S metabolic labeling
hippocampal brain slices = experiment: Metabolic labeling of newly synthesized proteins in hippocampal brain slices; type: cell-based
[2] = test system: cultured primary hippocampal neurons; experiment: Translation reporter assay: EGFP-αCaMKII 3′ UTR reporter mRNA transfected into neurons; type: cell-based, rat
hippocampal slices = type: cell-based, mice
phospho-eIF4E (S209) = experiment: Western analysis of eIF4E phosphorylation; type: cell-based, rat
Experimental: (§1) Western analysis. Homogenates were prepared in cold RIPA buffer containing protease inhibitors and phosphatase inhibitors. Hippocampal neurons were homogenized 8 minutes after stimulation. Hippocampal slices were frozen on dry ice 10 minutes after tetanization, and the CA1 and CA3 fields were microdissected and homogenized. Western analysis was performed with rabbit polyclonal antisera against dually-phosphorylated ERK1/2, phospho-S6 (S235/S236), phospho-eIF4E (S209), and phospho-4E-BP (S65) (Cell Signaling). […] Therefore, since 4E-BP2 is the most abundantly expressed 4E-BP in the brain, it is likely that the results reflected 4E-BP2 levels and phosphorylation state. Blots were stripped and reprobed with antisera directed against total ERK1/2, S6, eIF4E, and 4E-BP (Cell Signaling). Results were quantified with ImageJ (NIH), calculated as the ratio of phosphorylated species to […], and then normalized to the untreated control condition Staining of total protein with Ponceau-S confirmed equal loading.

phospho-S6 (S235/S236) = experiment: Western analysis of S6 phosphorylation; type: cell-based, rat
Experimental: as §1

[3] = test system: dually-phosphorylated ERK1/2
phospho-4E-BP (S65) = experiment: Western analysis of 4E-BP phosphorylation; type: cell-based, rat
Experimental: as §1

[4] = cultured hippocampal neurons (FIG. 10), agonist 10 uM or 50 uM
[5] = hippocampal brain slices (FIG. 9), agonist 10 uM or 50 uM
[6] = hippocampal cultures, Western Blot

## C[N+](C)(C)CCOC(N)=O [carbachol]
[1]; [4]
  Translation of endogenous neuronal mRNAs (metabolic labeling of newly synthesized proteins): stimulate translation
Hippocampal brain slices; [5]
  Translation of endogenous neuronal mRNAs (metabolic labeling of newly synthesized proteins): stimulate translation

## NC(CCCP(=O)(O)O)C(=O)O (centres unmarked) [AP5]
[2]; spontaneous neuronal activity, pretreatment with AP5 (100 μM) and DNQX (10 μM) together
  Translation of EGFP-αCaMKII-A20 reporter mRNA: significantly inhibited

## COc1ccc(C[C@H]2NC[C@H](O)[C@H]2OC(C)=O)cc1 [anisomycin]
Hippocampal slices
  Additional decrement in L-LTP: did not produce any additional decrement in L-LTP
  Kinetic pattern of L-LTP inhibition: progressive inhibition of L-LTP
  L-LTP magnitude at 200 minutes: 108±5% and 113±5%

## Sp-cAMPS
[1]
  Effect on translation (in words): increased translation

## N#CC(=C(/N)Sc1ccccc1N)/C(C#N)=C(\N)Sc1ccccc1N [U0126]
[1]
  Bulk translation of endogenous transcripts (35S-methionine incorporation): strongly inhibited
  Effect of pretreatment on agonist-induced increases in neuronal protein synthesis: blocked
  Effect on DHPG-induced increase in translation rates: blocked
  Effect on dopamine-induced increase in translation: blocked
  Effect on spaced depolarization-induced increase in translation: blocked
[2]
  Effect of concurrent treatment on stimulated EGFP-αCaMKII-A20 mRNA translation: significantly attenuated the effects of stimulation
  Sensitivity of activity-induced reporter mRNA translation to inhibition: persisted after mutation of the CPEs
  Translation of EGFP-αCaMKII-A20 reporter mRNA, combined pretreatment: no additional inhibition
phospho-eIF4E (S209)
  Effect on DHPG-induced increase in phosphorylation of eIF4E: blocked
  Phosphorylation of eIF4E: significantly inhibited; also recorded: significantly reduced
synaptoneurosomes
  Translation of endogenous synaptodendritic mRNAs: significantly reduced
phospho-S6 (S235/S236)
  Effect on DHPG-induced increase in phosphorylation of S6: blocked
  Phosphorylation of S6: significantly inhibited; also recorded: significantly reduced
[3]
  ERK phosphorylation (phospho-ERK levels): entirely abolished
  Phosphorylation of ERK: significantly reduced
Hippocampal brain slices
  Effect of pretreatment on agonist-induced increases in neuronal protein synthesis: blocked
phospho-4E-BP (S65)
  Phosphorylation of 4E-BP: significantly inhibited

## NCCc1ccc(O)c(O)c1 [dopamine]
[1]
  Increase in translation levels: 77%+/−26%

## Oc1cc2c(cc1O)C(c1ccccc1)CNCC2 (centres unmarked) [SKF38393]
[1]; [4]
  Translation of endogenous neuronal mRNAs (metabolic labeling of newly synthesized proteins): stimulate translation
Hippocampal brain slices; [5]
  Translation of endogenous neuronal mRNAs (metabolic labeling of newly synthesized proteins): stimulate translation

## O=[N+]([O-])c1cc2nc(O)c(O)nc2cc1[N+](=O)[O-] [DNQX]
[2]
  Translation of EGFP-αCaMKII-A20 reporter mRNA: significantly inhibited

## CCCN1CCC[C@@H]2Cc3n[nH]cc3C[C@H]21 [quinpirole]
[1]
  Translation of endogenous neuronal mRNAs (metabolic labeling of newly synthesized proteins): stimulate translation
Hippocampal brain slices
  Translation of endogenous neuronal mRNAs (metabolic labeling of newly synthesized proteins): stimulate translation

## actinomycin-D
Hippocampal slices
  Additional decrement in L-LTP: did not produce any additional decrement in L-LTP
  Kinetic pattern of L-LTP inhibition: distinct, delayed pattern of inhibition
  L-LTP magnitude at 60 min. post-tetanization: 157±4% and 157±3%
  L-LTP magnitude at 200 minutes: 107±4% and 122±5%
  Time after onset of tetanization during which L-LTP magnitude remained indistinguishable from untreated slices: approximately 75 minutes

## CC(C)NCC(O)c1ccc(O)c(O)c1 (centres unmarked) [isoproteronol]
[1]; [4]
  Translation of endogenous neuronal mRNAs (metabolic labeling of newly synthesized proteins): stimulate translation
Hippocampal brain slices; [5]
  Translation of endogenous neuronal mRNAs (metabolic labeling of newly synthesized proteins): stimulate translation

## OCC(O)c1ccc(O)c(O)c1 (centres unmarked) [DHPG, 3,4-Dihydroxyphenylglycol]
[1]
  Increase in translation levels: 50%+/−20%
phospho-eIF4E (S209); [6]
  Increase in phosphorylation of eIF4E: 33%+/−3%
phospho-S6 (S235/S236); [6]
  Increase in phosphorylation of S6: 52%+/−18%

B1: BDNF: brain derived neurotrophic factor; activates trkB (protein, UniProt P23560 19-247, looked up)
Neurotrophic factor BDNF …: APMKEANIRGQGGLAYPGVRTHGTLESVNGPKAGSRGLTSLADTFEHVIEELLDEDQKVRPNEENNKDADLYTSRVMLSSQVPLEPPLLFLLEEYKNYLDAANMSMRVRRHSDPARRGELSVCDSISEWVTAADKKTAVDMSGGTVTVLEKVPVSKGQLKQYFYETKCNPMGYTKEGCRGIDKRHWNSQCRTTQSYVRALTMDSKKRIGWRFIRIDTSCVCTLTIKRGR
[2]; 100 ng/mL BDNF for 4 hours, 40 μM bicuculline for 8 min., after U0126 preincubation and wash
  Stimulation of EGFP-αCaMKII-A20 mRNA translation: significant increases
